What follows are molecules tested against C5aR (Homo sapiens (Human), UniProt P21730) (assay: Chemotaxis assay using U937 cells (C5aR mediated migration)). Settings: read-out: Mig IC50.
Format: cell-based
Experimental: U937 cells are a monocytic cell line which express C5aR, and are available from ATCC (VA). These cells were cultured as a suspension in RPMI-1640 medium supplemented with 2 mM L-glutamine, 1.5 g/L sodium bicarbonate, 4.5 g/L glucose, 10 mM HEPES, 1 mM sodium pyruvate, and 10% FBS. Cells were grown under 5% CO2/95% air, 100% humidity at 37° C. and subcultured twice weekly at 1:6 (cells were cultured at a density range of 1×10^5 to 2×10^6 cells/mL) and harvested at 1×10^6 cells/mL. Prior to assay, cells are treated overnight with 0.5 mM of cyclic AMP (Sigma, OH) and washed once prior to use. cAMP treated U937 cells can be used in C5aR ligand binding and functional assays.
Optionally, compounds may be further assayed for their ability to inhibit chemotaxis in cells. Chemotaxis assays are performed using 5 μm pore polycarbonate, polyvinylpyrrolidone-coated filters in 96-well chemotaxis chambers (Neuroprobe; Gaithersburg, Md.) using chemotaxis buffer (Hank's balanced salt solution (HBSS) and 1% FBS). C5aR ligands (i.e., C5a, R&D Systems; Minneapolis, Minn.) are use to evaluate compound mediated inhibition of C5aR mediated migration. Other chemokines (i.e., SDF-1α; R&D Systems; Minneapolis, Minn.) are used as specificity controls. The lower chamber is loaded with 29 μl of chemokine (i.e., 0.03 nM C5a) and varying amounts of compound; the top chamber contains 100,000 U937 or neutrophil cells in 20 μl. The chambers are incubated 1.5 hours at 37° C., and the number of cells in the lower chamber quantified either by direct cell counts in five high powered fields per well or by the CyQuant assay (Molecular Probes), a fluorescent dye method that measures nucleic acid content and microscopic observation.
The compounds in Table 1, below, were prepared using the methods described above. Characterization data is provided for each compound listed. Activity is provided as follows for the chemotaxis assay using U937 cells as described herein (Example 12): +, 500 nM<IC50; ++, 50 nM<IC50≤500 nM; +++, 5 nM<IC50≤50 nM; and ++++, IC50≤5 nM.

Sequence of C5aR (P21730 whole entry): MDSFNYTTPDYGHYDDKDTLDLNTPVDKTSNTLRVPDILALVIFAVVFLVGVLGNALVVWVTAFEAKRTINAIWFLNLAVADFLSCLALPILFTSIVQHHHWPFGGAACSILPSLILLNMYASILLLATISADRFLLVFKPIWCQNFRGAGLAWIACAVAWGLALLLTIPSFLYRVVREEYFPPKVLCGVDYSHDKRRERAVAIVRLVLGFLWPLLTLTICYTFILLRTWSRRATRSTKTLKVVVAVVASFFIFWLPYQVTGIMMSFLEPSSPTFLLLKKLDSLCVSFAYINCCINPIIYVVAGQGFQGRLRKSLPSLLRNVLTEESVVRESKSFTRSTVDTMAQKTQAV

| IC50 [nM] | SMILES |
| --- | --- |
| ≤ 5 | Cc1cccc(OCC(C)C)c1-n1nc2c(c1-c1ccc(NC(N)=O)cc1)CN(c1cc(C(C)(C)C)ccc1F)CC2 [Example 1.421] |
| ≤ 5 | CCc1cccc(CC)c1-n1nc2c(c1-c1cc(F)c(NC(N)=O)cc1F)CN(C(=O)OC(C)(C)C)[C@H](C)C2 [Example 1.025] |
| ≤ 5 | CCc1cccc(CC)c1-n1nc2c(c1-c1cc(F)c(NC(N)=O)cc1F)CN(Cc1ccc(C(F)(F)F)cc1)C(C)(C)C2 [Example 1.017] |
| ≤ 5 | CCc1cccc(CC)c1-n1nc2c(c1-c1cc(F)c(NC(N)=O)cc1F)CN(Cc1ccc(Cl)cc1Cl)C(C)(C)C2 [Example 1.024] |
| ≤ 5 | CC(C)COc1ccccc1-n1nc2c(c1-c1cc(F)c(NC(N)=O)cc1F)CN(C(C)(C)c1ccccc1)CC2 [Example 1.199] |
| ≤ 5 | CCc1cccc(CC)c1-n1nc2c(c1-c1cc(F)c(NC(N)=O)cc1F)CN(Cc1cc(C(F)(F)F)ccc1F)CC2 [Example 1.039] |
| 50 to 500 | Cc1cccc(OCC(C)C)c1-n1nc2c(c1-c1ccc(NC(N)=O)cc1)CN(C(=O)c1ccccc1C(C)C)CC2 [Example 1.434] |
| 5 to 50 | Cc1cc(NC(N)=O)ccc1-c1c2c(nn1-c1c(C)cccc1OCC(C)C)CCN(c1ncc(C(F)(F)F)cc1F)C2 [Example 1.268] |
| ≤ 5 | Cc1cccc(OCC(C)C)c1-n1nc2c(c1-c1cc(F)c(NC(N)=O)cc1F)CN(c1ccnc(C(F)(F)F)n1)CC2 [Example 1.137] |
| 50 to 500 | CCc1cccc(CC)c1-n1nc2c(c1-c1ccc(NC(N)=O)c(F)c1)CN(C(C)(C)CC)CC2 [Example 1.221] |
| ≤ 5 | CCc1cccc(CC)c1-n1nc2c(c1-c1cc(F)c(NC(N)=O)cc1F)CN(Cc1ccc(C(F)(F)F)cc1Cl)C(C)(C)C2 [Example 1.035] |
| 5 to 50 | Cc1cccc(OCC(C)C)c1-n1nc2c(c1-c1ccc(NC(N)=O)cc1)CN(c1ncc(C(F)(F)F)cc1Cl)CC2 [Example 1.353] |
| ≤ 5 | CCc1cccc(CC)c1-n1nc2c(c1-c1cc(F)c(NC(N)=O)cc1F)CN(C(C(=O)OC)c1ccccc1)CC2 (centres unmarked) [Example 1.148] |
| 5 to 50 | COc1cc(-c2c3c(nn2-c2c(C)cccc2OCC(C)C)CCN(c2ncc(C(F)(F)F)cc2F)C3)ccc1NC(N)=O [Example 1.267] |
| 50 to 500 | COc1cccc(C)c1-n1nc2c(c1-c1ccc(N)cc1)CN(c1ccccc1C(C)C)CC2 [Example 1.486] |
| 5 to 50 | CCc1cccc(CC)c1-n1nc2c(c1-c1cc(F)c(NC(N)=O)cc1F)CN(CC)C(C)(C)C2 [Example 1.009] |
| ≤ 5 | Cc1ccc(C(C)(C)C)cc1N1CCc2nn(-c3c(C)cccc3OCC(C)C)c(-c3ccc(NC(N)=O)cc3)c2C1 [Example 1.457] |
| ≤ 5 | Cc1cccc(OCC(C)C)c1-n1nc2c(c1-c1ccc(NC(N)=O)cc1Cl)CN(c1ncc(C(F)(F)F)cc1F)CC2 [Example 1.269] |
| 50 to 500 | Cc1ccc(C(C)(C)C)cc1N1CCc2nn(-c3ccccc3C(C)C)c(-c3ccc(NC(N)=O)cc3)c2C1 [Example 1.403] |

| IC50 [nM] | SMILES |
| --- | --- |
| ≤ 5 | Cc1cc(NC(N)=O)c(F)cc1-c1c2c(nn1-c1c(C)cccc1OCC(C)C)CCN(c1ncc(C(C)C)cc1F)C2 [Example 1.129] |
| ≤ 5 | Cc1cccc(OCC(C)C)c1-n1nc2c(c1-c1cc(F)c(NC(N)=O)cc1F)CN(c1ncc(Cl)cc1Cl)CC2 [Example 1.210] |
| ≤ 5 | Cc1cccc(OCC(C)C)c1-n1nc2c(c1-c1cc(F)c(NC(N)=O)cc1F)CN(c1ncc(C(C)C)cc1F)CC2 [Example 1.202] |
| > 500 | Cc1cccc(OCC(C)C)c1-n1nc2c(c1-c1ccc(C(N)=O)cc1)CN(C(=O)OC(C)(C)C)CC2 [Example 1.411] |
| 50 to 500 | Cc1cccc(OCC(C)C)c1-n1nc2c(c1-c1ccc(NC(N)=O)cc1)CN(C(=O)c1ccc(C(C)(C)C)cc1)CC2 [Example 1.432] |
| ≤ 5 | CCc1cccc(CC)c1-n1nc2c(c1-c1cc(F)c(NC(N)=O)cc1C)CN(Cc1ccc(C(F)(F)F)cc1C(F)(F)F)CC2 [Example 1.068] |
| 5 to 50 | Cc1cccc(OCC(C)C)c1-n1nc2c(c1-c1ccc(NC(N)=O)cc1)CN(c1ccc(C(F)(F)F)c(Cl)c1)CC2 [Example 1.413] |
| 5 to 50 | Cc1cccc(CCC(C)C)c1-n1nc2c(c1-c1ccc(NC(N)=O)cc1)CN(Cc1ccc(C(F)(F)F)cc1C(F)(F)F)CC2 [Example 1.337] |
| ≤ 5 | Cc1cccc(OCC(C)C)c1-n1nc2c(c1-c1ccc(NC(N)=O)c(F)c1)CN(c1ncc(F)cc1Cl)CC2 [Example 1.228] |
| ≤ 5 | CCc1cccc(CC)c1-n1nc2c(c1-c1cc(F)c(NC(N)=O)cc1F)CN(Cc1ccccc1)CC2 [Example 1.051] |
| 50 to 500 | Cc1cccc(C)c1-n1nc2c(c1-c1cc(F)c(NC(N)=O)cc1F)CN(C(CO)c1ccccc1)CC2 (centres unmarked) [Example 1.087] |
| ≤ 5 | CCc1cccc(CC)c1-n1nc2c(c1-c1ccc(NC(N)=O)c(F)c1)CN(c1ncc(Cl)cc1Cl)CC2 [Example 1.227] |
| 5 to 50 | CCc1cccc(CC)c1-n1nc2c(c1-c1cc(F)c(NC(N)=O)cc1F)CN(CC1CCOCC1)CC2 [Example 1.019] |
| ≤ 5 | CCc1cccc(CC)c1-n1nc2c(c1-c1cc(F)c(NC(N)=O)cc1F)CN(Cc1ccccc1)C(C)C2 (centres unmarked) [Example 1.151] |
| 5 to 50 | COc1cc(CN2CCc3nn(-c4c(C)cccc4OCC(C)C)c(-c4ccc(NC(N)=O)cc4)c3C2)c(F)cc1Cl [Example 1.305] |
| ≤ 5 | CCC(CC)N1CCc2nn(-c3c(C)cccc3OCC(C)C)c(-c3ccc(NC(N)=O)c(F)c3)c2C1 [Example 1.255] |
| ≤ 5 | Cc1cccc(OCC(C)C)c1-n1nc2c(c1-c1ccc(NC(N)=O)cc1)CN(Cc1ccc(F)cc1Cl)CC2 [Example 1.326] |
| ≤ 5 | Cc1cccc(C)c1-n1nc2c(c1-c1cc(F)c(NC(N)=O)cc1F)CN(c1ncc(C(F)(F)F)cn1)CC2 [Example 1.154] |
| 50 to 500 | Cc1cccc(C)c1-n1nc2c(c1-c1ccc(NC(C)C)cc1)CN(c1ccccc1C(C)C)CC2 [Example 1.477] |

| IC50 [nM] | SMILES |
| --- | --- |
| ≤ 5 | CCc1cccc(CC)c1-n1nc2c(c1-c1cc(F)c(NC(N)=O)cc1F)CN(C(C)(C)c1ccccc1)CC2 [Example 1.200] |
| 5 to 50 | Cc1ccc(C(C)C)cc1N1CCc2nn(-c3c(C)cccc3OCC(C)C)c(-c3ccc(NC(N)=O)cc3)c2C1 [Example 1.396] |
| ≤ 5 | CCc1cccc(CC)c1-n1nc2c(c1-c1cc(F)c(NC(N)=O)cc1F)CN(Cc1cccc(C(F)(F)F)c1)C(C)(C)C2 [Example 1.014] |
| ≤ 5 | Cc1cccc(OCC(C)C)c1-n1nc2c(c1-c1ccc(NC(N)=O)cc1)CN(c1ccccc1C(C)(C)C)CC2 [Example 1.454] |
| ≤ 5 | CCc1cccc(CC)c1-n1nc2c(c1-c1cc(F)c(NC(N)=O)cc1F)CN(Cc1cc(C(F)(F)F)ccc1OC)CC2 [Example 1.037] |
| ≤ 5 | Cc1cc(-c2c3c(nn2-c2c(C)cccc2C)CCN(c2ncc(Cl)cc2Cl)C3)c(F)cc1NC(N)=O [Example 1.097] |
| ≤ 5 | Cc1cccc(OCC(C)C)c1-n1nc2c(c1-c1ccc(NC(N)=O)cc1)CN(C(C)c1ccc(C(F)(F)F)cc1)CC2 (centres unmarked) [Example 1.306] |
| > 500 | Cc1ccc(C(C)(C)C)cc1N1CCc2nn(-c3ccccc3C(C)C)c(-c3ccc(N(C)C(N)=O)cc3)c2C1 [Example 1.402] |
| ≤ 5 | CCc1cccc(CC)c1-n1nc2c(c1-c1cc(F)c(NC(N)=O)cc1F)CN(Cc1ccc(C(F)(F)F)cc1F)CC2 [Example 1.066] |
| ≤ 5 | Cc1cccc(OCC(C)C)c1-n1nc2c(c1-c1ccc(NC(N)=O)cc1)CN(Cc1c(C(F)(F)F)ccc(Cl)c1F)CC2 [Example 1.299] |
| 50 to 500 | Cc1cccc(C)c1-n1nc2c(c1-c1cc(F)c(NC(N)=O)cc1F)CN(c1ncc(C(C)(C)O)cc1Cl)CC2 [Example 1.104] |
| 5 to 50 | CCCCN1CCc2nn(-c3c(C)cccc3OCC(C)C)c(-c3ccc(NC(N)=O)c(F)c3)c2C1 [Example 1.231] |
| ≤ 5 | CCc1cccc(CC)c1-n1nc2c(c1-c1cc(F)c(NC(N)=O)cc1F)CN(Cc1ccc(F)cc1C(F)(F)F)C(C)(C)C2 [Example 1.012] |
| ≤ 5 | Cc1cccc(OCC(C)C)c1-n1nc2c(c1-c1cc(F)c(NC(N)=O)cc1F)CN(c1ncc(F)cn1)CC2 [Example 1.159] |
| ≤ 5 | Cc1cccc(OCC(C)C)c1-n1nc2c(c1-c1ccc(NC(N)=O)c(F)c1)CN(CC(C)(C)C)CC2 [Example 1.274] |
| 50 to 500 | CCc1cccc(CC)c1-n1nc2c(c1-c1cc(F)c(NC(=O)CO)cc1F)CN(Cc1ccc(C(F)(F)F)cc1C(F)(F)F)CC2 [Example 1.002] |
| ≤ 5 | Cc1cccc(OCC(C)C)c1-n1nc2c(c1-c1ccc(NC(N)=O)cc1)CN(Cc1c(F)cc(C(F)(F)F)cc1C(F)(F)F)CC2 [Example 1.334] |
| 50 to 500 | Cc1cccc(OCC(C)C)c1-n1nc2c(c1-c1ccc(NC(N)=O)cc1)CN(C1CCCC1)CC2 [Example 1.410] |
